Results: PubChem BioAssay (NCI)
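Results reflect a 48-hour exposure of cells in 96-well plates to compound at five concentrations. Here, GI50 denotes the concentration required for 50% inhibition of growth. TGI marks complete inhibition of growth.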

What was measured:
Experiment in all cases: DTP human tumour cell line panel, 48 h
HOP-92 NSCLC = test system: HOP-92 NSCLC
A549 NSCLC = test system: A549 NSCLC
A498 renal = test system: A498 renal
SK-MEL-5 melanoma = test system: SK-MEL-5 melanoma
NCI-H522 lung = test system: NCI-H522 lung
SW-620 colon = test system: SW-620 colon
NCI-H226 lung = test system: NCI-H226 lung
HT29 colon = test system: HT29 colon
EKVX NSCLC = test system: EKVX NSCLC
RPMI-8226 leukemia = test system: RPMI-8226 leukemia

`[C-]#[N+]C(C)(C)C[C@H]1CC(C)C2CCC(C)C3([N+]#[C-])CCC(=C)C1[C@H]23` (stereo partly drawn) was tested, and the TGI (HOP-92 NSCLC) was 0.256 µM, the TGI (A549 NSCLC) was 21.7 µM and the TGI (A498 renal) was 23.9 µM. For the same compound, the TGI (SK-MEL-5 melanoma) was 5 µM, the TGI (NCI-H522 lung) was 12.2 µM and the TGI (SW-620 colon) was 12.7 µM. For the same compound, the TGI (NCI-H226 lung) was 10.7 µM, the TGI (HT29 colon) was 11.7 µM and the TGI (EKVX NSCLC) was 35.8 µM.
Compound `CC1=Nn2c(nnc2-c2ccc(N)cc2)NC(C)(C)C1` has a TGI (HOP-92 NSCLC) of over 100 µM, a TGI (A549 NSCLC) of over 100 µM and a TGI (A498 renal) of over 100 µM. For the same compound, the TGI (SK-MEL-5 melanoma) was over 100 µM, the TGI (NCI-H522 lung) was over 100 µM and the TGI (SW-620 colon) was over 100 µM. It also gave a TGI (RPMI-8226 leukemia) of over 100 µM, a TGI (NCI-H226 lung) of over 100 µM and a TGI (HT29 colon) of over 100 µM. The TGI (EKVX NSCLC) was over 100 µM.
`C[C@@H]1C[C@@]2(O[C@@H]2C)C(=O)O[C@@H]2CCN3CC=C(COC(=O)[C@]1(C)O)[C@H]23` was tested, and the TGI (HOP-92 NSCLC) was over 100 µM, the TGI (A549 NSCLC) was over 100 µM and the TGI (A498 renal) was over 100 µM. It also gave a TGI (SK-MEL-5 melanoma) of over 100 µM, a TGI (NCI-H522 lung) of over 100 µM and a TGI (SW-620 colon) of over 100 µM. For the same compound, the TGI (RPMI-8226 leukemia) was over 100 µM, the TGI (NCI-H226 lung) was over 100 µM and the TGI (HT29 colon) was over 100 µM. It also gave a TGI (EKVX NSCLC) of over 100 µM.
Compound `COc1ccc2c(c1)CC1c3c(cc4c(c3-2)OCO4)CCN1C` (stereo not drawn) has a TGI (HOP-92 NSCLC) of 57 µM, a TGI (A549 NSCLC) of 61 µM and a TGI (A498 renal) of 31.7 µM. It also gave a TGI (SK-MEL-5 melanoma) of 30.6 µM, a TGI (NCI-H522 lung) of 38.7 µM and a TGI (SW-620 colon) of 59.8 µM. For the same compound, the TGI (RPMI-8226 leukemia) was 64.2 µM, the TGI (NCI-H226 lung) was 64.9 µM and the TGI (HT29 colon) was over 100 µM. For the same compound, the TGI (EKVX NSCLC) was 81.5 µM.
`CC(C)(c1ccc(OC#N)cc1)c1ccc(OC#N)cc1` was tested, and the TGI (HOP-92 NSCLC) was over 100 µM, the TGI (A549 NSCLC) was over 100 µM and the TGI (A498 renal) was over 100 µM. For the same compound, the TGI (SK-MEL-5 melanoma) was over 100 µM, the TGI (NCI-H522 lung) was over 31.6 µM and the TGI (SW-620 colon) was over 100 µM. For the same compound, the TGI (RPMI-8226 leukemia) was over 72.5 µM, the TGI (NCI-H226 lung) was over 100 µM and the TGI (HT29 colon) was over 100 µM. The TGI (EKVX NSCLC) was over 100 µM.
`COc1cc(-c2oc3c(OC)c(O)c(OC)c(O)c3c(=O)c2OC)ccc1O` was tested, and the TGI (A549 NSCLC) was over 100 µM, the TGI (A498 renal) was over 100 µM and the TGI (SK-MEL-5 melanoma) was over 100 µM. It also gave a TGI (NCI-H522 lung) of 66.9 µM, a TGI (SW-620 colon) of over 100 µM and a TGI (RPMI-8226 leukemia) of over 100 µM. It also gave a TGI (NCI-H226 lung) of over 100 µM, a TGI (HT29 colon) of over 100 µM and a TGI (EKVX NSCLC) of over 100 µM.
For `Cn1c(=O)c(C(=O)NC(=O)OCc2ccccc2)cn(CCSCCOC(=O)NCCCCCCNC(=O)OCCSCCn2cc(C(=O)NC(=O)OCc3ccccc3)c(=O)n(C)c2=O)c1=O`, the TGI (HOP-92 NSCLC) was 87.5 µM, the TGI (A549 NSCLC) was over 100 µM and the TGI (A498 renal) was over 100 µM. The TGI (SK-MEL-5 melanoma) was over 100 µM, the TGI (NCI-H522 lung) was over 100 µM and the TGI (SW-620 colon) was over 100 µM. It also gave a TGI (RPMI-8226 leukemia) of over 100 µM, a TGI (NCI-H226 lung) of over 100 µM and a TGI (EKVX NSCLC) of over 100 µM.
For `O=C(NCP(=O)(O)O)c1cccnc1`, the TGI (HOP-92 NSCLC) was over 100 µM, the TGI (A549 NSCLC) was over 100 µM and the TGI (A498 renal) was over 100 µM. For the same compound, the TGI (SK-MEL-5 melanoma) was over 100 µM, the TGI (SW-620 colon) was over 100 µM and the TGI (RPMI-8226 leukemia) was over 100 µM. For the same compound, the TGI (NCI-H226 lung) was over 100 µM, the TGI (HT29 colon) was over 100 µM and the TGI (EKVX NSCLC) was over 100 µM.
`C=C(C)[C@H](O)C(O)CC(C)[C@@H]1CCC23CC12CCC1[C@@]2(C)CCC(OC(C)=O)C(C)(C)C2CC(OC2OC(COC(C)=O)C(O)C(O)C2O)[C@]13C` (stereo partly drawn) showed a TGI (HOP-92 NSCLC) of 11 µM, a TGI (A549 NSCLC) of 12.2 µM and a TGI (A498 renal) of 14.7 µM. It also gave a TGI (NCI-H522 lung) of 9.91 µM, a TGI (SW-620 colon) of 12 µM and a TGI (RPMI-8226 leukemia) of 6.29 µM. The TGI (NCI-H226 lung) was 11.2 µM, the TGI (HT29 colon) was 8.77 µM and the TGI (EKVX NSCLC) was 12.7 µM.
In the case of `C=C1CC[C@@H]2[C@](C)(COC(C)=O)[C@H](OC(C)=O)CC[C@@]2(C)[C@@H]1C/C=C1/C(=O)OC[C@H]1OC(C)=O`, the GI50 (HOP-92 NSCLC) is reported as 13.2 µM, the TGI (HOP-92 NSCLC) is reported as 26.4 µM and the GI50 (A549 NSCLC) is reported as 11.9 µM. It also gave a TGI (A549 NSCLC) of 30.7 µM, a GI50 (A498 renal) of 14.4 µM and a TGI (A498 renal) of 27.5 µM. For the same compound, the GI50 (SK-MEL-5 melanoma) was 9.5 µM, the TGI (SK-MEL-5 melanoma) was 22.4 µM and the GI50 (NCI-H522 lung) was 1.52 µM. It also gave a TGI (NCI-H522 lung) of 3.63 µM, a GI50 (SW-620 colon) of 2.29 µM and a TGI (SW-620 colon) of 5.85 µM. For the same compound, the GI50 (RPMI-8226 leukemia) was 2.06 µM, the TGI (RPMI-8226 leukemia) was 7.68 µM and the GI50 (NCI-H226 lung) was 2.14 µM. It also gave a TGI (NCI-H226 lung) of 5.42 µM, a GI50 (EKVX NSCLC) of 12.9 µM and a TGI (EKVX NSCLC) of 25.6 µM.
